Measurements reported in patent US4758312A, “Method for in situ corrosion detection using electrochemically active compounds” (Nalco Chemical Company, priority 1987, dated 1988).

Tests used:
[1] = Commercial tetrazolium compounds, detection of iron corrosion (Example 4); settings: 0.1 percent solution, one percent sodium chloride
[2] = Water solubility of reduced form (formazan); type: physicochemical; settings: formazan of the synthesized tetrazolium compound
Excerpt: Because the reduced forms of the commercially available tetrazolium salts tested in Example 4 are insoluble, they would present a measurement problem when used in an actual corrosion detection test. The reduced form (the formazan) would precipitate at the corrosion site and be difficult to detect quantitatively in the water sample taken far from the corrosion site. Introduction of a functional group to give water solubility to the reduced form was done to eliminate this problem. Examples of such functional groups are carboxy (COOH), hydroxy (OH), sulfonic (OSO3 H), amino (NH2), etc. These could be introduced on any of the three "R" groups in the generalized tetrazolium structure given below by choosing the appropriate organic compound to be used in the synthesis. [drawing 4]

[3] = Corrosion detection under typical cooling water conditions in recirculation tank (Example 7); settings: continuous 4 ppm feed from day 4, Inhibitor A

Structure (SMILES) | Time to Color [1] [min] | Water solubility of formazan formed [2] | Formazan level, stabilized [3]
c1ccc(-c2nn(-c3ccccc3)[n+](-c3ccc(-c4ccc(-[n+]5nc(-c6ccccc6)nn5-c5ccccc5)cc4)cc3)n2)cc1 [Compound 8 (Table 6), 2,2',5,5'-tetraphenyl-3,3'(p-diphenylene)ditetrazolium chloride] | 35 |  | 
O=C(O)c1ccc(-n2nc(-c3ccccc3)n[n+]2-c2ccccc2)cc1 [tetrazolium compound, 2-(p-carboxyphenyl)-3,5-diphenyltetrazolium bromide] |  | water soluble | 2-3 ppb
